Data reported in ChEMBL document CHEMBL1201862, “PubChem BioAssay data set” (2004).
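Tested at 5 concentrations; 48 h exposure; 96-well plates; endpoints linearly interpolated, else capped at highest concentration. Here, GI50 denotes the concentration required for 50% inhibition of growth.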 Active and inactive are the calls of the source. Rule as the data show it: active = GI50 up to about 1.1 µM and inactive = higher.

Experiments:
Test in all cases: NCI anticancer screen, dose series, 48 h
[1] = tested on: HCC 2998
[2] = tested on: OVCAR-3
[3] = tested on: LXFL 529
[4] = tested on: COLO 205
[5] = tested on: A549
[6] = tested on: DMS-114
[7] = tested on: SR
[8] = tested on: TK-10
[9] = tested on: SF-268
[10] = tested on: A498
[11] = tested on: HCT-15
[12] = tested on: K562
[13] = tested on: SF-539
[14] = tested on: IGROV-1
[15] = tested on: OVCAR-4
[16] = tested on: SN12C
[17] = tested on: UO-31
[18] = tested on: ACHN
[19] = tested on: DLD-1
[20] = tested on: MOLT-4
[21] = tested on: SNB-75
[22] = tested on: SK-MEL-28
[23] = tested on: RPMI-8226
[24] = tested on: OVCAR-5
[25] = tested on: OVCAR-8
[26] = tested on: HT-29
[27] = tested on: SW-620
[28] = tested on: NCI-H23
[29] = tested on: U-251
[30] = tested on: NCI-H460
[31] = tested on: KM12
[32] = tested on: HCT-116
[33] = tested on: LOX IMVI
[34] = tested on: HOP-62
[35] = tested on: RXF 393
[36] = tested on: KM-20L2
[37] = tested on: CCRF-CEM
[38] = tested on: SK-MEL-5
[39] = tested on: UACC-62
[40] = tested on: M14
[41] = tested on: 786-0
[42] = tested on: SK-OV-3
[43] = tested on: HL-60
[44] = tested on: Malme-3M
[45] = tested on: SF-295
[46] = tested on: NCI/ADR-RES
[47] = tested on: SNB-19
[48] = tested on: UACC-257
[49] = tested on: CAKI-1
[50] = tested on: EKVX
[51] = tested on: NCI-H226
[52] = tested on: HOP-92
[53] = tested on: NCI-H522
[54] = tested on: MDA-MB-435
[55] = tested on: DU-145
[56] = tested on: BT-549
[57] = tested on: Hs-578T
[58] = tested on: SK-MEL-2
[59] = tested on: T47D
[60] = tested on: MCF7
[61] = tested on: MDA-MB-231
[62] = tested on: PC-3
[63] = tested on: MDA-N

CN1CCN(CN2C(=O)C3C4C=CC(C3C2=O)C2C3C(=O)N(CN5CCN(C)CC5)C(=O)C3C42)CC1 (stereo not given)
GI50 [1]: 34.7 µM (inactive)
GI50 [2]: 21.4 µM (inactive)
GI50 [3]: 19.9 µM (inactive)
GI50 [4]: 17.5 µM (inactive)
GI50 [5]: 32.4 µM (inactive)
GI50 [6]: 17.9 µM (inactive)
GI50 [7]: 16.4 µM (inactive)
GI50 [8]: 38 µM (inactive)
GI50 [9]: 25.3 µM (inactive)
GI50 [10]: 93.1 µM (inactive)
GI50 [11]: 16.9 µM
GI50 [12]: 26.9 µM (inactive)
GI50 [13]: 22.2 µM (inactive)
GI50 [14]: 34.2 µM (inactive)
GI50 [15]: 21.3 µM (inactive)
GI50 [16]: 20.3 µM (inactive)
GI50 [17]: 30.3 µM (inactive)
GI50 [18]: 28.2 µM (inactive)
GI50 [19]: 22.5 µM (inactive)
GI50 [20]: 22.2 µM (inactive)
GI50 [21]: 27.4 µM (inactive)
GI50 [22]: 23.5 µM (inactive)
GI50 [23]: 24.7 µM (inactive)
GI50 [24]: 30.8 µM (inactive)
GI50 [25]: 17.7 µM (inactive)
GI50 [26]: 33.4 µM (inactive)
GI50 [27]: 19 µM (inactive)
GI50 [28]: 21.2 µM (inactive)
GI50 [29]: 20.8 µM (inactive)
GI50 [30]: 16.1 µM (inactive)
GI50 [31]: 20.1 µM (inactive)
GI50 [32]: 16.5 µM (inactive)
GI50 [33]: 17.9 µM (inactive)
GI50 [34]: 70 µM (inactive)
GI50 [35]: 22.9 µM (inactive)
GI50 [36]: 25 µM (inactive)
GI50 [37]: 29.2 µM (inactive)
GI50 [38]: 17 µM (inactive)
GI50 [39]: 22.2 µM (inactive)
GI50 [40]: 16.4 µM (inactive)
GI50 [41]: 18.2 µM (inactive)

CC(=O)OCC1OC(NC(=S)Nn2c(=O)[nH]c3ccccc3c2=O)C(OC(C)=O)C(OC(C)=O)C1OC(C)=O (stereo not given)
GI50 [1]: > 100 µM (inactive)
GI50 [2]: > 100 µM (inactive)
GI50 [42]: > 100 µM (inactive)
GI50 [4]: > 100 µM (inactive)
GI50 [5]: > 100 µM (inactive)
GI50 [43]: 57.4 µM (inactive)
GI50 [44]: > 100 µM (inactive)
GI50 [45]: > 100 µM (inactive)
GI50 [7]: 64.9 µM (inactive)
GI50 [46]: > 100 µM (inactive)
GI50 [47]: > 100 µM (inactive)
GI50 [9]: > 100 µM (inactive)
GI50 [10]: > 100 µM (inactive)
GI50 [11]: > 100 µM
GI50 [48]: > 100 µM (inactive)
GI50 [13]: > 100 µM (inactive)
GI50 [14]: > 100 µM (inactive)
GI50 [16]: > 100 µM (inactive)
GI50 [17]: > 100 µM (inactive)
GI50 [18]: > 100 µM (inactive)
GI50 [49]: > 100 µM (inactive)
GI50 [50]: > 100 µM (inactive)
GI50 [20]: > 100 µM (inactive)
GI50 [21]: > 100 µM (inactive)
GI50 [22]: > 100 µM (inactive)
GI50 [23]: > 100 µM (inactive)
GI50 [51]: > 100 µM (inactive)
GI50 [24]: > 100 µM (inactive)
GI50 [25]: > 100 µM (inactive)
GI50 [26]: > 100 µM (inactive)
GI50 [52]: > 100 µM (inactive)
GI50 [27]: > 100 µM (inactive)
GI50 [53]: > 100 µM (inactive)
GI50 [54]: > 100 µM (inactive)
GI50 [28]: > 100 µM (inactive)
GI50 [29]: > 100 µM (inactive)
GI50 [55]: > 100 µM (inactive)
GI50 [30]: > 100 µM (inactive)
GI50 [56]: > 100 µM (inactive)
GI50 [57]: > 100 µM (inactive)
GI50 [31]: > 100 µM (inactive)
GI50 [32]: > 100 µM (inactive)
GI50 [33]: > 100 µM (inactive)
GI50 [34]: > 100 µM (inactive)
GI50 [35]: > 100 µM (inactive)
GI50 [58]: > 100 µM (inactive)
GI50 [37]: 49.5 µM (inactive)
GI50 [38]: > 100 µM (inactive)
GI50 [59]: > 100 µM (inactive)
GI50 [39]: > 100 µM (inactive)
GI50 [60]: > 100 µM (inactive)
GI50 [61]: > 100 µM (inactive)
GI50 [62]: > 100 µM (inactive)
GI50 [40]: > 100 µM (inactive)
GI50 [41]: > 100 µM (inactive)
GI50 [63]: > 100 µM (inactive)

O=C1Oc2ccccc2C1C/C(=N\Nc1ccccc1)c1ccccc1O (stereo not given)
GI50 [1]: 34.8 µM (inactive)
GI50 [2]: 32.8 µM (inactive)
GI50 [42]: 62.1 µM (inactive)
GI50 [4]: 15 µM (inactive)
GI50 [5]: 50 µM (inactive)
GI50 [43]: 34.2 µM (inactive)
GI50 [44]: 41.3 µM (inactive)
GI50 [45]: 33.7 µM (inactive)
GI50 [7]: 27.4 µM (inactive)
GI50 [46]: 20.8 µM (inactive)
GI50 [47]: > 100 µM (inactive)
GI50 [8]: 48.9 µM (inactive)
GI50 [9]: 25.7 µM (inactive)
GI50 [10]: 33.7 µM (inactive)
GI50 [11]: 34.3 µM
GI50 [48]: 28.8 µM (inactive)
GI50 [13]: 53 µM (inactive)
GI50 [14]: 17 µM (inactive)
GI50 [15]: 32.7 µM (inactive)
GI50 [16]: 42 µM (inactive)
GI50 [17]: 23.3 µM (inactive)
GI50 [18]: 16.6 µM (inactive)
GI50 [49]: 25.6 µM (inactive)
GI50 [50]: 26.5 µM (inactive)
GI50 [20]: 29.9 µM (inactive)
GI50 [21]: 56.8 µM (inactive)
GI50 [22]: 33.7 µM (inactive)
GI50 [23]: 45.2 µM (inactive)
GI50 [51]: 28.8 µM (inactive)
GI50 [24]: > 100 µM (inactive)
GI50 [25]: 32.4 µM (inactive)
GI50 [26]: 28.4 µM (inactive)
GI50 [52]: 25.6 µM (inactive)
GI50 [27]: 29.9 µM (inactive)
GI50 [53]: 38.2 µM (inactive)
GI50 [54]: 27.2 µM (inactive)
GI50 [28]: 22.2 µM (inactive)
GI50 [29]: 40.3 µM (inactive)
GI50 [55]: 40.7 µM (inactive)
GI50 [30]: 34.4 µM (inactive)
GI50 [56]: 28.6 µM (inactive)
GI50 [57]: 74.5 µM (inactive)
GI50 [31]: 7.46 µM (inactive)
GI50 [32]: 28.4 µM (inactive)
GI50 [33]: 11.5 µM (inactive)
GI50 [34]: 53.3 µM (inactive)
GI50 [35]: 53.7 µM (inactive)
GI50 [58]: 35.5 µM (inactive)
GI50 [37]: 62.1 µM (inactive)
GI50 [38]: 33.9 µM (inactive)
GI50 [59]: 11.3 µM (inactive)
GI50 [39]: 33.9 µM (inactive)
GI50 [60]: 36.5 µM (inactive)
GI50 [61]: 28.9 µM (inactive)
GI50 [62]: 30.2 µM (inactive)
GI50 [40]: 50.8 µM (inactive)
GI50 [41]: 36.1 µM (inactive)
GI50 [63]: 44.5 µM (inactive)
